16 compounds from PubChem BioAssay (NCI) can be followed below.

Values joined by “and” are separate entries in the source; they are usually repeats but may differ in a detail not shown here. Equal entries are not always repeated.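 Protocol summary: plate cells (96-well), add compound at 5 concentrations, incubate 48 h, interpolate endpoints linearly. GI50 = concentration required for 50% inhibition of growth. At the TGI there is no net growth.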

The assay has as its system MDA-MB-468 breast. The experiment in a line: NCI-60 cell line screen, 48 h.

For `CN(C)c1ccc2cc(-c3ccccc3F)c(N)nc2c1`, the GI50 is 542 nM and the TGI was 12.2 µM.
The corresponding values for `C[C@@H]1CN(CC(=O)N2CC(C)(C)c3nc(CO)c(Cc4ccc(F)cc4)cc32)[C@@H](CN2CCOC[C@H]2C)CN1` are 10900 nM and 27.9 µM.
The corresponding values for `CC(=O)O[C@@H]1CC2C(C)(C)CCCC2(C)C2=C1C(=O)C(C(C)C)=CC2=O` (some centres not stated) are 1540 nM and 3.81 µM.
The corresponding values for `Fc1ccc2[nH]c3c(NCCCN4CCOCC4)ncnc3c2c1` are 20400 nM and more than 100 µM.
Turning to `CN(C)c1ccc(/C=C/C=C(/C#N)c2ccccc2)cc1`, the GI50 was 17500 nM and the TGI came to 67.7 µM.
`CCCCCCCCCCCC[n+]1ccc(CCCCCCCCC)cc1`: the GI50 was 253 nM and the TGI came to 0.833 µM.
`OCc1ccc(-c2nn(Cc3ccccc3)c3ccccc23)o1`: the GI50 was 110 nM and the TGI is 0.287 µM.
As for `CN(CCOc1ccc(C#N)cc1)CCOc1ccc(C#N)cc1`, the GI50 was 27500 nM and the TGI is more than 100 µM.
For `COc1ccc(-c2cn(-c3ccccc3)c(-c3ccccc3)n2)cc1OC`, the GI50 is 4900 nM and the TGI is 21.9 µM.
The like results for `CC(C)(C)c1ccc(S(=O)(=O)N[C@H]2CC[C@H]3[C@@H]4CCc5cc(OS(=O)(=O)O)ccc5[C@H]4CC[C@]23C)cc1` were, in that order, 2050 nM and 5.59 µM.
Turning to `Cc1cc(C(C#N)c2ccc(Cl)cc2)c(Cl)cc1NC(=O)c1cc(I)cc(I)c1O` (configuration not stated), the GI50 was 4310 nM and 15300 nM; the TGI was 18 µM and 30 µM.
Consider `c1n[nH]cc1-c1nc2ccc3[nH]ncc3c2c2c1CCCC2`, for which the GI50 is 1360 nM and the TGI amounted to 3.6 µM.
The like results for `CC(=O)Oc1ccccc1C(=O)Nc1cc(C(C)C)ccc1C` were, in that order, 2490 nM and 8.38 µM.
The corresponding values for `COc1cc(Nc2nc(N[C@H]3CCCC[C@@H]3N)nc3cc[nH]c(=O)c23)cc(OC)c1` are 260 nM and 0.854 µM.
The corresponding values for `C[C@@H]1COCCN1c1cc(C2(S(C)(=N)=O)CC2)nc(-c2ccnc3[nH]ccc23)n1` (some centres not stated) are 3920 nM and 25 µM.
As to `CCCCN(Cc1ccc(F)cc1)c1ccc(CO)c(Cl)c1`, the GI50 was 167 nM and the TGI worked out at 0.449 µM.
